What all share (type): in vivo
One assay deals with Spodoptera frugiperda. In words: Spodoptera frugiperda test (spray treatment). Conditions: foliar, 168 h, 500 g a. i./ha, 7 d, sprayed maize leaf discs, army worm caterpillars, read-out: % 7 d (activity; 100% = all caterpillars killed). The source says: An appropriate preparation of active compound is produced by mixing 1 part by weight of active compound with the stated amounts of solvent and emulsifier and diluting the concentrate to the desired concentration using emulsifier-containing water.
Maize leaf discs (Zea mays) are sprayed with a preparation of active compound at the desired concentration and after they have dried off they are populated with caterpillars of the army worm (Spodoptera frugiperda).
After the desired time the activity is measured in %. Here 100% means that all of the caterpillars have been killed; 0% means that no caterpillar has been killed.

A further assay relates to Phaedon cochleariae. In words: Phaedon test (spray treatment). Conditions: 500 g a. i./ha, sprayed Chinese cabbage leaves, mustard beetle larvae. The source says:
[table] An appropriate preparation of active compound is produced by mixing 1 part by weight of active compound with the stated amounts of solvent and emulsifier and diluting the concentrate to the desired concentration using emulsifier-containing water. Chinese cabbage leaves (Brassica pekinensis) are sprayed with a preparation of active compound at the desired concentration and after they have dried off they are populated with larvae of the mustard beetle (Phaedon cochleariae). After the desired time the activity is measured in %.

Another assay deals with Aedes Aegypti. In words: Aedes Aegypti test. Conditions: 20 g a. i./ha, third larval stage (L3). The method, then:
An appropriate preparation of active compound is produced by mixing the active compound with the stated amounts of solvent and diluting the concentrate to the desired concentration with water.
The Aedsae aegypti larvae (third larval stage, L3) are treated with a preparation of active compound at the desired concentration.
After the desired time the activity is measured in %. Here 100%, means that all of the Aedsae aegypti have been killed; 0% means that no Aedsae aegypti have been killed, and -1 denotes that no evaluation was possible.

Molecules are shown by their SMILES.

As for `COc1c(Cl)cc(OCC=C(Cl)Cl)cc1/C(C)=N/OCCCCOc1ncc(C(F)(F)F)cc1Cl` [Example 23], the pest or weed control at 500 g/ha in the assay with Spodoptera frugiperda was 100%. The same measure, in the same setting: the result for `COc1c(Cl)cc(OCC=C(Cl)Cl)cc1/C(C)=N/OCCc1ccc([N+](=O)[O-])cc1` [Example 39] reads 100%; that for `COc1c(Cl)cc(OCC=C(Cl)Cl)cc1/C(C)=N/OCCOc1ccc(C(F)(F)F)cn1` [Example 21], 100%; that for `COc1c(Cl)cc(OCC=C(Cl)Cl)cc1/C(C)=N/OCc1ccc(Oc2ccc(SC)cc2)cc1` [Example 49], 100%. In the case of `COc1c(Cl)cc(OCC=C(Cl)Cl)cc1/C(C)=N/OCc1ccc(OC(F)(F)F)cc1` [Example 29], in the assay with Spodoptera frugiperda, the pest or weed control at 500 g/ha was 100%.

On to `COc1c(Cl)cc(OCC=C(Cl)Cl)cc1/C(C)=N/OC(C)c1ccccc1` (centres unmarked) [Example 45], for which the pest or weed control at 500 g/ha in the assay with Spodoptera frugiperda came to 83%. For the molecule `COc1c(Cl)cc(OCC=C(Cl)Cl)cc1/C(C)=N/OCc1ccc(F)c(Oc2ccccc2)c1` [Example 30], in the assay on Spodoptera frugiperda, the pest or weed control at 500 g/ha was 100%. On to `COc1c(Cl)cc(OCC=C(Cl)Cl)cc1/C(C)=N/OCCc1ccc(NC(=O)OC(C)(C)C)cc1` [Example 41], for which the pest or weed control at 500 g/ha in the assay on Spodoptera frugiperda amounted to 100%. Turning to `COc1c(Cl)cc(OCC=C(Cl)Cl)cc1/C(C)=N/OCCCCOc1c(Cl)cc(C(F)(F)F)cc1Cl` [Example 24], in the assay on Spodoptera frugiperda, the pest or weed control at 500 g/ha was determined as 100%. In the case of `COc1c(Cl)cc(OCC=C(Cl)Cl)cc1/C(C)=N/OCCCc1ccc(F)cc1` [Example 42], in the assay with Spodoptera frugiperda, the pest or weed control at 500 g/ha is 100%. On the same count and under the same terms, the result for `COc1c(Cl)cc(OCC=C(Cl)Cl)cc1/C(C)=N/OCCCCOc1ccc(C(F)(F)F)cn1` [Example 22] reads 100%. Same read-out and setting: the result for `COc1c(Cl)cc(OCC=C(Cl)Cl)cc1/C(C)=N/OCCc1ccc(NC(=O)C2(C)CC2)cc1` [Example 40] reads 100%. Turning to `COc1c(Cl)cc(OCC=C(Cl)Cl)cc1C(=NO)C(C)C` (racemic) [Example 14, 1-[3-Chloro-5-(3,3-dichloroallyloxy)-2-methoxyphenyl]-2-methylpropan-1-one oxime], the “% 7 d (activity; 100% = all beetle larvae killed)” value in the assay with Phaedon cochleariae came out at 100%. Also, the “% 2 d (activity; 100% = all Aedes aegypti killed)” value in the assay on Aedes Aegypti was determined as 80%.

These data come from patent US20090221596A1, “Substtituted aryl oximes” (priority 2006, published 2009).
